Assay results as given in patent US20200206233A1 (INTEGRAL BIOSCIENCES PRIVATE LIMITED, priority 2018, published 2020).

Molecular target: T1, IDH1 mutant (R132H) (Homo sapiens, UniProt O75874, R132H)
T1 construct: purchased BPS Bioscience 71099-2
Test: Mutant IDH1-R132H Fluorescence Assay (Resazurin based)
Type: biochemical
Details: 10 nM IDH1 R132H, 4 mM α-ketoglutarate, NADPH, 1.5 h at room temperature
Procedure: IC50 values of compounds against IDH1 mutant (R132H) was determined by Resazurin based Fluorescence assay. Assays were performed in Buffer (25 mM Tris HCl, 150 mM NaCl, 10 mM MgCl2, 0.03% BSA, 2 mM 1-mercaptoethanol) where total reaction volume was 12.5 μL in low-volume 384-well plates (Cat #4511, Corning). Serially diluted compounds (3-fold) were incubated with cocktail of α-ketoglutarate (4 mM; Cat #75892-25G, Sigma), NADPH ([…]; Cat # N1630-100MG, Sigma) and buffer for 5 min, following IDH1 R132H mutant (10 nM; Cat #71099-2, BPS Bioscience) was added and incubated in dark at room temperature for 1.5 h. After 1.5 h, 6.25 μL detection solution containing Resazurin ([…]; (Cat #62758-13-8, Sigma) and Diaphorase (40 ug/ml; Cat # D2197-300UN, Sigma) in buffer was added and incubated for 15 min. Readings were taken in a Synergy Neo Plate reader (BioTek, Winooski) at single excitation of 540 nm and emission at 590 nm respectively.
The % (percent) activity of test samples was calculated as (Sample−Min)×100/(Max−Min). [Max: DMSO control, complete reaction with enzyme with DMSO and Min: No enzyme with DMSO]. Percent inhibition (100−% activity) was fitted to the “four-parameter logistic model” in XLfit for determination of IC50 values.

T1 sequence (O75874 whole entry R132H): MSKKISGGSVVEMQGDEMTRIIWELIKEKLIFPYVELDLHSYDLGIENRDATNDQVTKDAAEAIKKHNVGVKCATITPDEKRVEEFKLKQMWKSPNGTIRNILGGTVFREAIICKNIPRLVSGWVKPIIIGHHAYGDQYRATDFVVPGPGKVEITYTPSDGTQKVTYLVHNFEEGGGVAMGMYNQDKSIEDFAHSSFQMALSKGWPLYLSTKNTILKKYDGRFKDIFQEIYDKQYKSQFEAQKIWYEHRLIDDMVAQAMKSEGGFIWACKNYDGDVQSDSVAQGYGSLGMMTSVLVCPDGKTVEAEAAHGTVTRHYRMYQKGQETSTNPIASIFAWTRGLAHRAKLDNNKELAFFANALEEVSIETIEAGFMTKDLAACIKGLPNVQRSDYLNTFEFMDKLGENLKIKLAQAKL

Compound	IC50
CC[C@H]1COC(=O)N1c1nc(C)nc(N[C@H](C)c2cc3cc(Cl)c(OC)cc3[nH]c2=O)n1 [Compound 1.43, (S)-3-(4-((R)-1-(6-chloro-7-methoxy-2-oxo-1,2-dihydroquinolin-3-yl)ethylamino)-6-methyl-1,3,5-triazin-2-yl)-4-ethyloxazolidin-2-one]	6.83 µM
C[C@@H](Nc1ncnc(N2CCOC2=O)n1)c1ccc(Oc2ccccc2)cc1 [Compound 1.20]	> 30 µM
CC[C@H]1COC(=O)N1c1nc(C)nc(N[C@@H](C)c2ccc(-c3ccc(F)c(C)c3)cn2)n1 [Compound 1.68, (S)-4-ethyl-3-(4-((S)-1-(5-(4-fluoro-3-methylphenyl)pyridin-2-yl)ethylamino)-6-methyl-1,3,5-triazin-2-yl)oxazolidin-2-one]	1.58 µM
CC[C@H]1COC(=O)N1c1nc(C)nc(N[C@H](C)c2ccc(Nc3ccccc3)cc2)n1 [Compound 1.88, (S)-4-ethyl-3-(4-methyl-6-((R)-1-(4-(phenylamino)phenyl)ethylamino)-1,3,5-triazin-2-yl)oxazolidin-2-one]	> 30 µM
CC[C@H]1COC(=O)N1c1nc(C)nc(N[C@H](C)c2ccc(Oc3ccc(Cl)cc3)c(C)n2)n1 [Compound 1.97, (S)-3-(4-((R)-1-(5-(4-chlorophenoxy)-6-methylpyridin-2-yl)ethylamino)-6-methyl-1,3,5-triazin-2-yl)-4-ethyloxazolidin-2-one]	> 30 µM
CC[C@H]1COC(=O)N1c1nc(C)nc(N[C@H](C)c2cn3cc(Br)ccc3n2)n1 [Compound 1.48, (S)-3-(4-((R)-1-(6-bromoimidazo[1,2-a]pyridin-2-yl)ethylamino)-6-methyl-1,3,5-triazin-2-yl)-4-ethyloxazolidin-2-one]	> 30 µM
CC[C@H]1COC(=O)N1c1nc(C)nc(N[C@@H](C)c2ccc3c(-c4ccccc4)cn(C)c3c2)n1 [Compound 1.101, (S)-4-ethyl-3-(4-methyl-6-((S)-1-(1-methyl-3-phenyl-1H-indol-6-yl)ethylamino)-1,3,5-triazin-2-yl)oxazolidin-2-one]	13.6 µM
CC[C@H]1COC(=O)N1c1nc(C)nc(N[C@H](C)c2cc3cc(Br)ccc3[nH]c2=O)n1 [Compound 1.67, (S)-3-(4-((R)-1-(6-bromo-2-oxo-1,2-dihydroquinolin-3-yl)ethylamino)-6-methyl-1,3,5-triazin-2-yl)-4-ethyloxazolidin-2-one]	12.3 µM
CC[C@H]1COC(=O)N1c1nc(C)nc(N[C@@H](C)c2ccc(Oc3ccc(Cl)cc3)c(C)n2)n1 [Compound 1.96, (S)-3-(4-((S)-1-(5-(4-chlorophenoxy)-6-methylpyridin-2-yl)ethylamino)-6-methyl-1,3,5-triazin-2-yl)-4-ethyloxazolidin-2-one]	3.83 µM
CC[C@H]1COC(=O)N1c1nc(C)nc(N[C@H](C)c2cc3cc(OC)ccc3[nH]c2=O)n1 [Compound 1.56, (S)-4-ethyl-3-(4-((R)-1-(6-methoxy-2-oxo-1,2-dihydroquinolin-3-yl)ethylamino)-6-methyl-1,3,5-triazin-2-yl)oxazolidin-2-one]	> 30 µM
CC[C@H]1COC(=O)N1c1nc(C)nc(N[C@@H](C)c2ccc(Nc3ccccc3)cc2)n1 [Compound 1.89, (S)-4-ethyl-3-(4-methyl-6-((S)-1-(4-(phenylamino)phenyl)ethylamino)-1,3,5-triazin-2-yl)oxazolidin-2-one]	1.42 µM
Cc1nc(N[C@@H](C)c2ccc(Oc3ccccc3)cc2)nc(N2C(=O)OCC2(C)C)n1 [Compound 1.110, (S)-4,4-dimethyl-3-(4-methyl-6-(1-(4-phenoxyphenyl)ethylamino)-1,3,5-triazin-2-yl)oxazolidin-2-one]	2.02 µM
CC[C@H]1COC(=O)N1c1nc(C)nc(N[C@@H](C)c2cc3cc(OC)ccc3[nH]c2=O)n1 [Compound 1.55, (S)-4-ethyl-3-(4-((S)-1-(6-methoxy-2-oxo-1,2-dihydroquinolin-3-yl)ethylamino)-6-methyl-1,3,5-triazin-2-yl)oxazolidin-2-one]	1.25 µM
CC[C@H]1COC(=O)N1c1nc(C)nc(N[C@H](C)c2cnc3ccc(Cl)nn23)n1 [Compound 1.70, (S)-3-(4-((R)-1-(6-chloroimidazo[1,2-b]pyridazin-3-yl)ethylamino)-6-methyl-1,3,5-triazin-2-yl)-4-ethyloxazolidin-2-one]	> 30 µM

Second part, the compound after the results:

IC50	Compound
> 30 µM	CC[C@H]1COC(=O)N1c1nc(C)nc(N[C@H](C)c2ccc(Oc3ccc4ccccc4c3)cc2)n1 [Compound 1.93, (S)-4-ethyl-3-(4-methyl-6-((R)-1-(4-(naphthalen-2-yloxy)phenyl)ethylamino)-1,3,5-triazin-2-yl)oxazolidin-2-one]
> 30 µM	CC[C@H]1COC(=O)N1c1nc(C)nc(N[C@@H](C)c2cnc3ccc(Cl)nn23)n1 [Compound 1.69, (S)-3-(4-((S)-1-(6-chloroimidazo[1,2-b]pyridazin-3-yl)ethylamino)-6-methyl-1,3,5-triazin-2-yl)-4-ethyloxazolidin-2-one]
3.18 µM	CC[C@H]1COC(=O)N1c1nc(C)nc(N[C@@H](C)c2cn3cc(Br)ccc3n2)n1 [Compound 1.47, (S)-3-(4-((S)-1-(6-bromoimidazo[1,2-a]pyridin-2-yl)ethylamino)-6-methyl-1,3,5-triazin-2-yl)-4-ethyloxazolidin-2-one]
> 30 µM	CC[C@H]1COC(=O)N1c1nc(C)nc(N[C@@H](C)c2cc3cc(Cl)cnc3[nH]c2=O)n1 [Compound 1.49, (S)-3-(4-((S)-1-(6-chloro-2-oxo-1,2-dihydro-1,8-naphthyridin-3-yl)ethylamino)-6-methyl-1,3,5-triazin-2-yl)-4-ethyloxazolidin-2-one]
2.4 µM	CC[C@H]1COC(=O)N1c1nc(N[C@@H](C)c2ccc(Oc3ccccc3)cc2)nc(N(C)C)n1 [Compound 1.63, (S)-3-(4-(dimethylamino)-6-((S)-1-(4-phenoxyphenyl)ethylamino)-1,3,5-triazin-2-yl)-4-ethyloxazolidin-2-one]
> 30 µM	C[C@@H](Nc1ncnc(N2C(=O)OC[C@@H]2C)n1)c1ccc(Oc2ccccc2)cc1 [Compound 1.17, (S)-4-methyl-3-(4-((R)-1-(4-phenoxyphenyl)ethylamino)-1,3,5-triazin-2-yl)oxazolidin-2-one]
1.27 µM	CC[C@H]1COC(=O)N1c1nc(C)nc(N[C@@H](C)c2cc3cc(C)ccc3[nH]c2=O)n1 [Compound 1.108, (S)-4-ethyl-3-(4-methyl-6-((S)-1-(6-methyl-2-oxo-1,2-dihydroquinolin-3-yl)ethylamino)-1,3,5-triazin-2-yl)oxazolidin-2-one]
> 30 µM	CC(C)[C@H]1COC(=O)N1c1ncnc(N[C@H](C)c2cc3cc(Cl)ccc3[nH]c2=O)n1 [Compound 1.22, (S)-3-(4-((R)-1-(6-chloro-2-oxo-1,2-dihydroquinolin-3-yl)ethylamino)-1,3,5-triazin-2-yl)-4-isopropyloxazolidin-2-one]
> 30 µM	CC[C@H]1COC(=O)N1c1nc(C)nc(N[C@@H](C)c2ccc(Oc3cccnc3)cc2)n1 [Compound 1.74, (S)-4-ethyl-3-(4-methyl-6-((S)-1-(4-(pyridin-3-yloxy)phenyl)ethylamino)-1,3,5-triazin-2-yl)oxazolidin-2-one]
> 30 µM	CC(C)[C@H]1COC(=O)N1c1ncnc(N[C@H](C)c2ccc(Oc3ccccc3)cc2)n1 [Compound 1.8, (S)-4-isopropyl-3-(4-((R)-1-(4-phenoxyphenyl)ethylamino)-1,3,5-triazin-2-yl)oxazolidin-2-one]
10.2 µM	CC[C@H]1COC(=O)N1c1nc(C)nc(N[C@H](C)c2ccc(Oc3cccnc3C(F)(F)F)cc2)n1 [Compound 1.80, (S)-4-ethyl-3-(4-methyl-6-((R)-1-(4-(2-(trifluoromethyl)pyridin-3-yloxy)phenyl)ethylamino)-1,3,5-triazin-2-yl)oxazolidin-2-one]
> 30 µM	CC[C@H]1COC(=O)N1c1nc(C)nc(N[C@H](C)c2cc3ccccc3[nH]c2=O)n1 [Compound 1.46, (S)-4-ethyl-3-(4-methyl-6-((R)-1-(2-oxo-1,2-dihydroquinolin-3-yl)ethylamino)-1,3,5-triazin-2-yl) oxazolidin-2-one]
8.82 µM	CC[C@H]1COC(=O)N1c1nc(C)nc(N[C@@H](C)c2ccc(Oc3ccc(Cl)cc3)nc2OC)n1 [Compound 1.87, (S)-3-(4-((S)-1-(6-(4-chlorophenoxy)-2-methoxypyridin-3-yl)ethylamino)-6-methyl-1,3,5-triazin-2-yl)-4-ethyloxazolidin-2-one]
> 30 µM	CC[C@H]1COC(=O)N1c1nc(C)nc(N[C@H](C)c2cc3cc(-c4ccc(Cl)cc4)ccc3[nH]c2=O)n1 [Compound 1.107, (S)-3-(4-((R)-1-(6-(4-chlorophenyl)-2-oxo-1,2-dihydroquinolin-3-yl)ethylamino)-6-methyl-1,3,5-triazin-2-yl)-4-ethyloxazolidin-2-one]
24.5 µM	CC(C)[C@H]1COC(=O)N1c1ncnc(N[C@H](C)c2cn(-c3ccc(Cl)cc3)cn2)n1 [Compound 1.14, (S)-3-(4-((R)-1-(1-(4-chlorophenyl)-1H-imidazol-4-yl)ethylamino)-1,3,5-triazin-2-yl)-4-isopropyloxazolidin-2-one]
